Test results reported in US9873702B2, “Heterocyclic compounds as biogenic amine transport modulators” (Southern Research Institute, priority 2014, dated 2018).
Read-outs that look alike come from different tables or passages of the source.

Experiments:
[1] = target: T1, dopamine transporter (DAT) (Rattus norvegicus, UniProt P23977); test: Dopamine transporter-mediated [^3H]MPP^+ release, shift of D-amphetamine-induced release, rat caudate synaptosomes; assay type: biochemical; design: Freshly removed caudate was homogenized in 10% ice-cold sucrose; from tissue; host or cells: rat caudate synaptosomes; conditions: for Kb: apparent Ke from shift of D-amphetamine-induced [^3H]MPP^+ release, compound at the concentration of column 1, read-out: Ke App; for Apparent Kc: [3H]MPP+ release, Apparent Kc = [Blocker]/((EC50-2/EC50-1) − 1), negative when shifted EC50 is less than control
T1 sequence (P23977 whole entry): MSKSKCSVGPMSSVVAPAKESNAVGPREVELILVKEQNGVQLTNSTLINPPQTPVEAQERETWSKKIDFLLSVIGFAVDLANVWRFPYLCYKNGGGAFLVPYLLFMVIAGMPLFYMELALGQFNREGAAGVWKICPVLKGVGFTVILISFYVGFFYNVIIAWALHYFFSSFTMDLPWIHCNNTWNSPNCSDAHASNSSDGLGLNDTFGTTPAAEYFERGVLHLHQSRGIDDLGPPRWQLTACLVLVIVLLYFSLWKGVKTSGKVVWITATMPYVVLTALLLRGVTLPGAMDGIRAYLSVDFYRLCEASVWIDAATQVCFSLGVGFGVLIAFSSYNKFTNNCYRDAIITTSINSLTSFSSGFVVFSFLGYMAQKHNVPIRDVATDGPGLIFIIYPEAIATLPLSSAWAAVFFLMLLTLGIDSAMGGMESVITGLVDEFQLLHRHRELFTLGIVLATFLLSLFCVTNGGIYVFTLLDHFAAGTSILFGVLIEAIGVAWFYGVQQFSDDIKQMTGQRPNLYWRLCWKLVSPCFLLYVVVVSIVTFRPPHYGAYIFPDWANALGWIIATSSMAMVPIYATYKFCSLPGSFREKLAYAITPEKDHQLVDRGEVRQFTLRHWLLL

[2] = target: T2, DAT (Rattus norvegicus, UniProt P23977); test: Dopamine transporter binding, inhibition of [^3H]WIN35428 binding in rat caudate membranes; conditions: for EC50: read-out: WIN Binding EC50 (μM ± SD); for Emax: 2 h, read-out: DAT Binding εmax
T2 construct: from tissue; host or cells: rat caudate membranes
T2 sequence (P23977 whole entry): as above
Method: The ability of test drugs to inhibit [^3H]WIN35428 binding to DAT in rat caudate membranes was assessed as follows. For each experiment, caudates from four rat brains were suspended in 15 mL ice cold assay buffer (50 mM sodium phosphate pH 7.4) and homogenized using a polytron (setting 6, 20 sec). The homogenate was centrifuged at 30,000×g for 10 minutes at 4° C. The pellet was resuspended with vigorous vortexing in 15 mL fresh ice cold assay buffer, and the centrifugation was repeated. The pellet was resuspended in 15 mL fresh ice cold assay buffer with vigorous vortexing followed by six strokes with a glass-on-glass hand-held homogenizer and was diluted to a final volume of 235 mL in ice cold assay buffer. [^3H]WIN35428 was diluted to 10 nM in assay buffer that contained 25 μg/mL chymostatin, 25 μg/mL leupeptin, 0.1 mM EDTA, and 0.1 mM EGTA. Each assay tube contained 0.75 mL membrane preparation, 0.15 mL test drug diluted in assay buffer containing 1 mg/mL bovine serum albumin, and 0.1 mL [^3H]WIN35428 preparation (final concentration of 1 nM). Assays were initiated by the addition of membranes and were terminated after 2 hours at 25° C. by rapid vacuum filtration. Retained tritium was measured as described. The data from three experiments were pooled and fit to a dose-response curve equation (using Kaleidagraph), to yield an Emax and EC50 value.

[3] = target: norepinephrine transporter (NET) (Rattus norvegicus, UniProt Q9WTR4); test: Norepinephrine reuptake ([^3H]norepinephrine uptake) inhibition in rat brain synaptosomes; conditions: for NE Uptake Emax (% I ± SD): maximal inhibition from dose-response fit
[4] = target: T1, dopamine transporter (DAT); test: Dopamine reuptake ([^3H]dopamine uptake) inhibition in rat brain synaptosomes
[5] = target: T3, serotonin transporter (SERT) (Rattus norvegicus, UniProt P31652); test: Serotonin reuptake ([^3H]serotonin uptake) inhibition in rat brain synaptosomes; assay type: biochemical; conditions: mean ± S.D., n = 3; for Emax: read-out: SERT Uptake Emax; for IC50: read-out: SERT Uptake IC50
T3 construct: Freshly removed whole brain minus cerebellum and caudate was homogenized; from tissue; host or cells: rat whole brain minus cerebellum and caudate, synaptosomes
T3 sequence (P31652 whole entry): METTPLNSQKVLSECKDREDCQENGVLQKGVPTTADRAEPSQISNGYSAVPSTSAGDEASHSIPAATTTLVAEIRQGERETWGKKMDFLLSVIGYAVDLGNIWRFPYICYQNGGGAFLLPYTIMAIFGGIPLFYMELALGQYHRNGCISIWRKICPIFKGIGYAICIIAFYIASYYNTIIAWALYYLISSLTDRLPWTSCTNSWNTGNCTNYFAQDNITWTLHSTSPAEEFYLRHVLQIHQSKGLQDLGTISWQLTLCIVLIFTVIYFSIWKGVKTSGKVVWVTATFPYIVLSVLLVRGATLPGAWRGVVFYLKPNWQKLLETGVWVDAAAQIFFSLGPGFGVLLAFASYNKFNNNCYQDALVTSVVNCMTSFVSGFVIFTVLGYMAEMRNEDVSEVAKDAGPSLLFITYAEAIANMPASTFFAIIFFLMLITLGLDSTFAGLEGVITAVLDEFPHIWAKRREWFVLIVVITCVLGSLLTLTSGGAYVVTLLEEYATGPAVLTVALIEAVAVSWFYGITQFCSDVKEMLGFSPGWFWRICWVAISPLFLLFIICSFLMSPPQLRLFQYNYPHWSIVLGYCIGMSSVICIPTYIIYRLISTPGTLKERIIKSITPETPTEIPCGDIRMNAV

[6] = Emax of D-amphetamine for [^3H]MPP^+ release in presence of 500 nM test compound
[7] = rat brain synaptosomes, 10 nM [^3H]norepinephrine
[8] = read-out: NE Uptake EC50 (nM ± SD), rat brain synaptosomes, 10 nM [^3H]norepinephrine, 10 min, 37° C.
[9] = DAT Uptake IC50, [3H]DA uptake inhibition, mean ± S.D., n = 3
[10] = read-out: NET Uptake IC50, mean ± S.D., n = 3
[11] = IC50 for DAT Uptake Inhibition, rounded value as listed in Table 10
[12] = read-out: Emax for DAT Uptake Inhibition

D-Amphetamine Emax (% ± SD) [1, 6] | Kb [1] | effect on the d-amphetamine Emax value, in words ([1]; d-amphetamine-induced DAT-mediated [^3H]MPP^+ release, blocking concentration ˜25 times IC50 for DAT uptake inhibition) | EC50 [2] | NE Uptake Emax (% I ± SD) [3, 7] | IC50 [3, 8] | IC50 [4, 9] | Emax ([4]; read-out: DAT Uptake Emax) | Emax [5] | IC50 [5] | Emax [2] | NET Uptake Emax ([3]; mean ± S.D., n = 3) | IC50 [3, 10] | Apparent Kc [1] | IC50 [4, 11] | Emax [4, 12] | D-Amphetamine Emax (% ± SD) ([1]; Emax of D-amphetamine for [^3H]MPP^+ release in presence of 50 nM test compound) | D-Amphetamine Emax (% ± SD) ([1]; Emax of D-amphetamine for [^3H]MPP^+ release in presence of 12500 nM test compound) | Structure (SMILES)
– | – | – | – | 76 ± 3 % I | 69 ± 18 nM | 9.3 ± 1.1 nM | 65 ± 1% | 56 ± 1% | 3.9 ± 0.4 nM | 34 ± 3% | 76 ± 9% | 69 ± 18 nM | – | – | – | – | – | OC(CNc1nc(-c2cnc3nccn3c2)nc2ccccc12)(c1ccccc1)c1ccccc1 [compound 99, 2-((2-(Imidazo[1,2-A]Pyrimidin-6-yl)Quinazolin-4-yl)Amino)-1,1-Diphenylethanol]
– | – | – | – | 71 ± 2 % I | 259 ± 41 nM | 13 ± 2 nM | 73 ± 2% | 51 ± 1% | 54 ± 7 nM | 47 ± 6% | 71 ± 2% | 259 ± 41 nM | – | – | – | – | – | CN(C)c1ncc(-c2nc(NCC(O)(c3ccccc3)c3ccccc3)c3ccccc3n2)cn1 [compound 80, 2-((2-(2-(Dimethylamino)Pyrimidin-5-yl)Quinazolin-4-yl)Amino)-1,1-Diphenylethanol]
– | – | – | – | – | – | 11 ± 1 nM | – | – | 22 ± 5 nM | 30 ± 3% | 67 ± 2% | 47 ± 10 nM | – | – | – | – | – | CS(=O)(=O)Nc1ccc(-c2nc(NCC(c3ccccc3)c3ccccc3)c3ccccc3n2)c(Cl)c1 [SRI-31043]
– | – | – | – | – | – | 8.9 ± 1.6 nM | – | – | 20 ± 5 nM | 60 ± 7% | 65 ± 3% | 144 ± 30 nM | – | – | – | – | – | Cc1cc(NS(C)(=O)=O)ccc1-c1nc(NCC(c2ccccc2)c2ccccc2)c2ccccc2n1 [SRI-30828]
– | – | – | – | 73 ± 6 % I | 203 ± 79 nM | 11 ± 2 nM | 70 ± 2% | 57 ± 2% | 35 ± 9 nM | 55 ± 3% | 73 ± 6% | 203 ± 79 nM | – | – | – | – | – | OC(CNc1nc(-c2ccc3[nH]ccc3c2)nc2ccccc12)(c1ccccc1)c1ccccc1 [compound 81, 2-((2-(1H-Indol-5-yl)Quinazolin-4-yl)Amino)-1,1-Diphenylethanol]
– | – | – | – | – | – | 11 ± 2 nM | – | – | 50 ± 14 nM | 47 ± 7% | 70 ± 2% | 426 ± 49 nM | – | – | – | – | – | CS(=O)(=O)Nc1ccc(-c2nc(NCC(O)(c3ccccc3)c3ccccc3)c3ccccc3n2)cc1 [SRI-30504]

Further lines, the compound ahead of its results:

Structure (SMILES) | D-Amphetamine Emax (% ± SD) [1, 6] | Kb [1] | effect on the d-amphetamine Emax value, in words ([1]; d-amphetamine-induced DAT-mediated [^3H]MPP^+ release, blocking concentration ˜25 times IC50 for DAT uptake inhibition) | EC50 [2] | NE Uptake Emax (% I ± SD) [3, 7] | IC50 [3, 8] | IC50 [4, 9] | Emax ([4]; read-out: DAT Uptake Emax) | Emax [5] | IC50 [5] | Emax [2] | NET Uptake Emax ([3]; mean ± S.D., n = 3) | IC50 [3, 10] | Apparent Kc [1] | IC50 [4, 11] | Emax [4, 12] | D-Amphetamine Emax (% ± SD) ([1]; Emax of D-amphetamine for [^3H]MPP^+ release in presence of 50 nM test compound) | D-Amphetamine Emax (% ± SD) ([1]; Emax of D-amphetamine for [^3H]MPP^+ release in presence of 12500 nM test compound)
c1ccc(C(CCNc2nc(-c3ccc4[nH]ccc4c3)nc3ccccc23)c2ccccc2)cc1 [compound 21, N-(3,3-Diphenylpropyl)-2-(1H-Indol-5-yl)Quinazolin-4-Amine] | 78 ± 2% | 886 nM | no significant effect | 0.2 µM | 77 ± 3 % I | 346 ± 59 nM | – | – | – | – | – | – | – | – | – | – | – | –
CN(C)c1ncc(-c2nc(NCC(c3ccccc3)c3ccccc3)c3ccccc3n2)cn1 [compound 16, 2-(2-(Dimethylamino)pyrimidin-5-yl)-N-(2,2-diphenylethyl)quinazolin-4-amine] | 101 ± 3% | 1820 nM | – | 1.7 ± 0.2 µM | 73 ± 4 % I | 181 ± 46 nM | 20 ± 1 nM | 73 ± 1% | 55 ± 5% | 37 ± 18 nM | 76 ± 2% | 73 ± 4% | 181 ± 46 nM | 1820 nM | 20 nM | 73% | – | –
Cn1cc2cc(-c3nc(NCC(c4ccccc4)c4ccccc4)c4ccccc4n3)ccc2n1 [compound 66, N-(2,2-Diphenylethyl)-2-(2-Methyl-2H-Indazol-5-yl)Quinazolin-4-Amine] | – | – | – | – | 71 ± 3 % I | 229 ± 43 nM | 19 ± 4 nM | 69 ± 2% | 61 ± 2% | 106 ± 19 nM | 58 ± 3% | 71 ± 3% | 229 ± 43 nM | – | – | – | – | –
c1ccc(C(CNc2nc(-c3cnc4nccn4c3)nc3ccccc23)c2ccccc2)cc1 [compound 89, N-(2,2-Diphenylethyl)-2-(Imidazo[1,2-A]Pyrimidin-6-yl)Quinazolin-4-Amine] | – | – | – | – | 69 ± 2 % I | 63 ± 9 nM | 2.1 ± 0.3 nM | 68 ± 1% | 51 ± 1% | 4.7 ± 0.6 nM | 18 ± 4% | 69 ± 2% | 63 ± 9 nM | -1070 nM | 2 nM | 68% | 102 ± 2% | –
c1ccc(C(CNc2nc(-c3ccc4nccn4c3)nc3ccccc23)C2CCCCC2)cc1 (centres unmarked) [compound 100, N-(2-Cyclohexyl-2-Phenylethyl)-2-(Imidazo[1,2-A]Pyridin-6-yl)Quinazolin-4-Amine] | – | – | – | – | 65 ± 4 % I | 153 ± 55 nM | 12 ± 2 nM | 72 ± 2% | 59 ± 4% | 83 ± 28 nM | 50 ± 4% | 65 ± 4% | 153 ± 55 nM | – | – | – | – | –
c1ccc(C(CNc2nc(-c3cnc4nccn4c3)nc3ccccc23)c2ccccn2)cc1 (centres unmarked) [compound 98, 2-(Imidazo[1,2-A]Pyrimidin-6-yl)-N-(2-Phenyl-2-(Pyridin-2-yl)Ethyl)Quinazolin-4-Amine] | – | – | – | – | 77 ± 2 % I | 132 ± 16 nM | 18 ± 3 nM | 71 ± 2% | 54 ± 2% | 28 ± 6 nM | 62 ± 7% | 77 ± 2% | 132 ± 16 nM | – | – | – | – | –
c1ccc(C(CNc2nc(-c3ccc4nccn4c3)nc3ccccc23)c2cccnc2)cc1 (centres unmarked) [compound 131, 2-(Imidazo[1,2-A]Pyridin-6-yl)-N-(2-Phenyl-2-(Pyridin-3-yl)Ethyl)Quinazolin-4-Amine] | – | – | – | – | 75 ± 3 % I | 78 ± 17 nM | 21 ± 3 nM | 70 ± 2% | 59 ± 3% | 35 ± 11 nM | 44 ± 3% | 75 ± 3% | 78 ± 17 nM | – | – | – | – | –
Cc1cc(NS(C)(=O)=O)ccc1-c1nc(NCC(c2ccccc2)c2ccncc2)c2ccccc2n1 (centres unmarked) [SRI-31039] | – | – | – | – | – | – | 7.4 ± 2 nM | – | – | 8 ± 2.8 nM | 72 ± 7% | 71 ± 3% | 31 ± 7 nM | – | – | – | – | –
CSc1ncc(-c2nc(NCC(c3ccccc3)c3ccccc3)c3ccccc3n2)cn1 [compound 30, N-(2,2-Diphenylethyl)-2-(2-(Methylthio)Pyrimidin-5-yl)Quinazolin-4-Amine] | – | – | – | – | 62 ± 3 % I | 204 ± 47 nM | 9 ± 1.5 nM | 71 ± 2% | 52 ± 3% | 56 ± 21 nM | 63 ± 4% | 62 ± 3% | 204 ± 47 nM | – | – | – | – | –
CN(C)c1ncc(-c2nc(NCCC(c3ccccc3)c3ccccc3)c3ccccc3n2)cn1 [compound 20, N-(3,3-Diphenylpropyl)-2-(2-(Dimethylamino)Pyrimidin-5-yl)Quinazolin-4-Amine] | – | 64600 nM | – | 2.2 ± 0.5 µM | 64 ± 5 % I | 8130 ± 2270 nM | – | – | – | – | – | – | – | – | – | – | – | 103 ± 2%
CNc1ncc(-c2nc(NCC(c3ccccc3)c3ccccc3)c3ccccc3n2)cn1 [compound 41, N-(2,2-Diphenylethyl)-2-(2-(Methylamino)Pyrimidin-5-yl)Quinazolin-4-Amine] | – | – | – | – | 78 ± 2 % I | 179 ± 27 nM | 11 ± 1 nM | 71 ± 1% | 60 ± 3% | 57 ± 18 nM | 59 ± 6% | 78 ± 2% | 179 ± 27 nM | – | – | – | – | –
